According to the supplement of paper PMC10307832:

These cell lines were tested with CC[C@@H]1C(=O)N(C)c2cnc(Nc3ccc(C(=O)NC4CCN(C)CC4)cc3OC)nc2N1C1CCCC1 [BI-2536] + O=C(c1cc(Cc2n[nH]c(=O)c3ccccc23)ccc1F)N1CCN(C(=O)C2CC2)CC1 [Olaparib] (partner 8 µM) (assay: relative viability (nuclei count vs DMSO), 5 days (fraction); higher = more cells survive). Conditions: first compound 0.1 µM.
How it was run: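 The day after seeding in 1536-well plates, lung cancer cell lines were treated by pin tool with a single drug, or with a fixed anchor-drug dose together with five library-drug doses (not always all listed) in √10 steps. After 5 days, a combined fix-and-stain solution (final 0.05% Triton X-100, 1% formaldehyde, 1 ug/ml Hoechst) was added. Nuclei counted on 4× images gave relative viability as treated counts over vehicle counts, reported as the median of duplicate plates.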

First: NCI-H1734
Second: NCI-H460
The relative viability of the first is lower: 0.254 for the first, 0.268 for the second.

First: NCI-H2347
Second: SK-LU-1
The relative viability of the first is higher: 0.531 for the first, 0.302 for the second.

Going from NCI-H1395 to 201T, the relative viability rises from 0.329 to 0.853.

First: NCI-H1915
Second: HCC-827
The relative viability of the first is lower: 0.163 for the first, 0.531 for the second.

Going from LXF-289 to NCI-H23, the relative viability falls from 0.343 to 0.212.

Going from NCI-H1299 to NCI-H647, the relative viability falls from 0.828 to 0.107.

Compared with CAL-12T, NCI-H1651 is lower in relative viability: 0.493 for the first, 0.157 for the second.

First: EPLC-272H
Second: NCI-H2228
The relative viability of the first is lower: 0.124 for the first, 0.141 for the second.

Compared with NCI-H1792, NCI-H1355 is higher in relative viability: 0.316 for the first, 0.536 for the second.

First: NCI-H3122
Second: NCI-H1437
The relative viability of the first is lower: 0.276 for the first, 0.339 for the second.

Compared with NCI-H1755, NCI-H2023 is lower in relative viability: 0.707 for the first, 0.13 for the second.

Going from HCC-15 to NCI-H1793, the relative viability falls from 0.343 to 0.203.

PC-14 showed a relative viability of 0.0592.

Same assay, conditions: first compound 0.3162 µM

Going from NCI-H522 to NCI-H727, the relative viability rises from 0.364 to 0.461.

Compared with NCI-H1650, EBC-1 is lower in relative viability: 0.166 for the first, 0.139 for the second.

Compared with NCI-H1703, NCI-H1993 is higher in relative viability: 0.102 for the first, 0.471 for the second.

First: SW 1573
Second: NCI-H838
The relative viability of the first is higher: 0.1 for the first, 0.0986 for the second.

Going from LCLC-103H to NCI-H520, the relative viability falls from 0.358 to 0.162.

Compared with NCI-H2126, EMC-BAC-2 is lower in relative viability: 0.322 for the first, 0.207 for the second.

First: NCI-H2085
Second: Calu-6
The relative viability of the first is higher: 0.341 for the first, 0.0982 for the second.

Going from HCC-366 to NCI-H1666, the relative viability rises from 0.0235 to 0.545.

First: NCI-H596
Second: LK-2
The relative viability of the first is higher: 0.423 for the first, 0.098 for the second.

Going from NCI-H2087 to NCI-H2342, the relative viability rises from 0.0859 to 0.319.

Compared with SK-MES-1, H3255 is higher in relative viability: 0.165 for the first, 0.298 for the second.

Compared with COR-L23, COR-L 105 is higher in relative viability: 0.111 for the first, 0.404 for the second.

Going from IA-LM to LOU-NH91, the relative viability rises from 0.101 to 0.336.

ChaGo-K-1 and NCI-H2170 are the same in relative viability: 0.164 for the first, 0.164 for the second.

First: NCI-H2405
Second: HOP-62
The relative viability of the first is higher: 0.281 for the first, 0.101 for the second.

Compared with HCC-44, A549 is lower in relative viability: 0.378 for the first, 0.0214 for the second.

First: SW 900
Second: LU99A
The relative viability of the first is higher: 0.215 for the first, 0.137 for the second.

First: BEN
Second: HARA
The relative viability of the first is higher: 0.382 for the first, 0.139 for the second.

Going from NCI-H1648 to HCC-78, the relative viability rises from 0.23 to 0.47.

Going from NCI-H322M to LCLC-97TM1, the relative viability falls from 0.442 to 0.0868.

Compared with NCI-H2009, A-427 is higher in relative viability: 0.114 for the first, 0.191 for the second.

Compared with NCI-H441, NCI-H661 is higher in relative viability: 0.148 for the first, 0.335 for the second.

Going from NCI-H1734 to NCI-H460, the relative viability falls from 0.176 to 0.0394.

Going from NCI-H2347 to SK-LU-1, the relative viability falls from 0.471 to 0.179.

Going from NCI-H1395 to 201T, the relative viability rises from 0.364 to 0.382.

Going from NCI-H1915 to HCC-827, the relative viability rises from 0.0887 to 0.214.

Compared with LXF-289, NCI-H23 is higher in relative viability: 0.0702 for the first, 0.117 for the second.

Compared with NCI-H1299, NCI-H647 is lower in relative viability: 0.237 for the first, 0.0584 for the second.
